Measured values as given in the NIST ThermoML archive (doi:10.1021/je900520a).
± gives the expanded uncertainty stated by the source.

Conditions: Crystal; visual observation

Row | Normal melting temperature | SMILES
1 | 111 ± 1 °C | CC(C)C(=O)Nc1ccc([N+](=O)[O-])c(C(F)(F)F)c1 [flutamide]
2 | 242 ± 1 °C | C[C@]12C=CC(=O)N[C@@H]1CC[C@@H]1[C@@H]2CC[C@]2(C)[C@@H](C(=O)Nc3cc(C(F)(F)F)ccc3C(F)(F)F)CC[C@@H]12 [dutasteride]
3 | 252 ± 1 °C | CC(C)(C)NC(=O)[C@H]1CC[C@H]2[C@@H]3CC[C@H]4NC(=O)C=C[C@]4(C)[C@H]3CC[C@]12C [finasteride]
